Results taken from ChEMBL document CHEMBL2146416 (Bioorg Med Chem, 2012).

biological target: 4-aminobutyrate aminotransferase, mitochondrial (Sus scrofa, UniProt P80147); test: Competitive inhibition of pig GABA aminotransferase using alpha-ketoglutarate as substrate by SSADH-coupled assay
Sequence (P80147 whole entry): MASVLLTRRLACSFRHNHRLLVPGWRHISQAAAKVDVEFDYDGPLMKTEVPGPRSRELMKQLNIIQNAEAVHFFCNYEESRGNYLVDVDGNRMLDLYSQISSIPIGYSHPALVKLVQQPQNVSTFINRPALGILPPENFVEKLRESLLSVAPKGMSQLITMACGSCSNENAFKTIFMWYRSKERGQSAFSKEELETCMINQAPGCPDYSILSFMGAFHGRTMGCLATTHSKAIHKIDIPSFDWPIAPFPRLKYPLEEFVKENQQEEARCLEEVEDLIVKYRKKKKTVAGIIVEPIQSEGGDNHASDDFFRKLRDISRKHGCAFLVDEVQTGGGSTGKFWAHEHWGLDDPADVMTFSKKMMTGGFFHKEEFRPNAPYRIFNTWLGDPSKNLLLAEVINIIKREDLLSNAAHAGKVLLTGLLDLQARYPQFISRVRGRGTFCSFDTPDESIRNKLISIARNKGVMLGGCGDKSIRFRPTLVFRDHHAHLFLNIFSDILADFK

Row | Ki [µM] | Compound
1 | 1640 | NCc1coc(C(=O)O)c1
2 | 1350 | NCc1csc(C(=O)O)c1
3 | 1590 | NCc1c[nH]c(C(=O)O)c1

Second part, the compound before the results:

Row | Compound | Ki [µM]
4 | NCc1ccc(C(=O)O)o1 | 1400
5 | NCc1ccc(C(=O)O)s1 | 2490
6 | NCc1ccc(C(=O)O)[nH]1 | 2140
7 | NCc1cocc1C(=O)O | 2270
8 | NCc1cscc1C(=O)O | 2860
